Data reported in patent US12281079B2, “Quinoline derivatives, processes for their preparation and uses thereof for the treatment of cancer” (Lead Discovery Center GmbH, priority 2019, dated 2025).
pIC50: −log10 of the molar value. Structures can show the parent of a compound that is named as a salt.

Tests used:
[1] = molecular target: mitochondrial RNA polymerase (POLRMT) (Mus musculus, UniProt Q8BKF1); experiment: Homogeneous TR-FRET assay for mitochondrial transcription activity; format: biochemical; conditions: homogeneous TR-FRET assay according to Example 4
Sequence of mitochondrial RNA polymerase (POLRMT) (Q8BKF1 42-1207): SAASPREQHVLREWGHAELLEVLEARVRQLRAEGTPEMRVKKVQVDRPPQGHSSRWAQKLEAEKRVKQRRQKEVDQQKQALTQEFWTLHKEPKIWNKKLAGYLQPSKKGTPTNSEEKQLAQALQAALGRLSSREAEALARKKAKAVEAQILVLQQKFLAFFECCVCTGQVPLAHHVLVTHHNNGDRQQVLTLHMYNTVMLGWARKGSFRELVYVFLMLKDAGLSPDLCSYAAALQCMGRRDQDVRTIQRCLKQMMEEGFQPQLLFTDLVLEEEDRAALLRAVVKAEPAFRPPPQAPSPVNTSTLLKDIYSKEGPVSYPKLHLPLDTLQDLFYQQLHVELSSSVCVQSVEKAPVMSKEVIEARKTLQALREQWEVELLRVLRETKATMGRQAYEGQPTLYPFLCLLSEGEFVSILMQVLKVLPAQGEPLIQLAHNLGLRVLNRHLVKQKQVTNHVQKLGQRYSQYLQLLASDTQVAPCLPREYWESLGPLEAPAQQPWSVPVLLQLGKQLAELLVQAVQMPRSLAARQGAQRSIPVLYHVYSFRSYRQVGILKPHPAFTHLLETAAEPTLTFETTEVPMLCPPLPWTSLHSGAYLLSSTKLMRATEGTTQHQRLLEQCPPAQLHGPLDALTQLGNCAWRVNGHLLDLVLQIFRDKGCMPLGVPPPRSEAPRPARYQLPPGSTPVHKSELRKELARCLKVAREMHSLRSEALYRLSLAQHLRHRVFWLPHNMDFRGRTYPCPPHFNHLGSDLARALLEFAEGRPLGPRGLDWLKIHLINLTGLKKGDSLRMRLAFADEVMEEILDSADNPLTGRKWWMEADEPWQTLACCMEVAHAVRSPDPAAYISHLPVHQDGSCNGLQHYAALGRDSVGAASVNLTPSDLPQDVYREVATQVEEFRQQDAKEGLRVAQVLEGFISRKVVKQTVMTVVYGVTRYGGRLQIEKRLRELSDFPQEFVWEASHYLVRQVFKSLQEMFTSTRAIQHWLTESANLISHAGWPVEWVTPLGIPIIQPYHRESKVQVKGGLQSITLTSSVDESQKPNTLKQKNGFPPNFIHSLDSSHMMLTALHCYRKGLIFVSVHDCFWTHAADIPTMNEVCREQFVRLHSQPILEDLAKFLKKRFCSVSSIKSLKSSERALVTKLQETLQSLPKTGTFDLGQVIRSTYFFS
Method in brief: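 Read-out is TR-FRET (ex 340, em 665 nm) from two adjacent labelled DNA probes annealing to the 407 bp transcript after EDTA/700 mM NaCl stop. Reaction: murine POLRMT, TFAM, TFB2M and LSP plasmid template, compound 10 μM or serial dilution, 10 min rt preincubation, 500 μM each nucleotide, 2 h rt.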

[2] = system: mitochondrial transcription (7S RNA) in HeLa cells; experiment: Quantitative real time-PCR assay of inhibition of mitochondrial transcription (7S RNA) in HeLa cells; format: cell-based; conditions: Homo sapiens, 4 h compound incubation, according to Example 5, read-out: cellular qPCR assay
Method in brief: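 HeLa cells were exposed to compound dilution series or DMSO for 4 h, then RNA was extracted, normalized and reverse-transcribed. TaqMan qRT-PCR measured short-lived 7S RNA, with POLRMT as nuclear-transcription readout and TBP as housekeeping gene. Biological triplicates were analyzed by ΔΔCt and reported as Rq % (2−ΔΔCt).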

SMILES	pIC50 [1]	pIC50 [2]
CCOC(=O)C[C@H]1CCCN(C(=O)[C@@H](C)Oc2ccc3c(-c4ccc(F)cc4Cl)cc(C)nc3c2)C1 [Compound 74, ethyl 2-[(3R)-1-[(2R)-2-[[4-(2-chloro-4-fluoro-phenyl)-2-methyl-7-quinolyl]oxy]propanoyl]-3-piperidyl]acetate]	6.00 to 7.00	6.30 to 7.30
C[C@@H](Oc1ccc2c(-c3ccccc3Cl)cc(Cl)nc2c1)C(=O)N1CCC[C@H](C(N)=O)C1 [Compound 76, (3S)-1-[(2R)-2-[[2-chloro-4-(2-chlorophenyl)-7-quinolyl]oxy]propanoyl]piperidine-3-carboxamide]	6.00 to 7.00	7.30 to 8.00
C[C@@H](Oc1ccc2c(-c3ccc(F)cc3Cl)ccnc2c1)C(=O)NC1CC1 [Compound 77, (2R)-2-[[4-(2-chloro-4-fluoro-phenyl)-7-quinolyl]oxy]-N-cyclopropyl-propanamide]	6.00 to 7.00	6.30 to 7.30
C[C@H](Oc1ccc2c(-c3ccccc3Cl)ccnc2c1)C(=O)N1CCC[C@H](C(=O)O)C1 [Compound 78, (3S)-1-[(2S)-2-[[4-(2-chlorophenyl)-7-quinolyl]oxy]propanoyl]piperidine-3-carboxylic acid]	6.00 to 7.00	5.30 to 6.30
Cc1sccc1-c1ccnc2cc(O[C@H](C)C(=O)N3CCC[C@H](CC(=O)O)C3)ccc12 [Compound 79, 2-[(3R)-1-[(2R)-2-[[4-(2-methyl-3-thienyl)-7-quinolyl]oxy]propanoyl]-3-piperidyl]acetic acid]	6.00 to 7.00	6.30 to 7.30
C[C@@H](Oc1ccc2c(-c3ccc(F)cc3Cl)cc(Cl)nc2c1)C(=O)N1CCC[C@H](C(N)=O)C1 [Compound 81, (3S)-1-[(2R)-2-[[2-chloro-4-(2-chloro-4-fluoro-phenyl)-7-quinolyl]oxy]propanoyl]piperidine-3-carboxamide]	5.00 to 6.00	6.30 to 7.30
C[C@@H](Oc1ccc2c(-c3ccccc3Cl)cc(Cl)nc2c1)C(=O)N1CCC[C@H](CC(=O)O)C1 [Compound 83, 2-[(3R)-1-[(2R)-2-[[2-chloro-4-(2-chlorophenyl)-7-quinolyl]oxy]propanoyl]-3-piperidyl]acetic acid]	5.00 to 6.00	5.30 to 6.30
CC(Oc1ccc2c(-c3ccccc3Cl)ccnc2c1)C(=O)N(C)C (stereo not shown) [Compound 86, 2-[[4-(2-chlorophenyl)-7-quinolyl]oxy]-N,N-dimethyl-propanamide]	5.00 to 6.00	6.30 to 7.30
C[C@@H](Oc1ccc2c(-c3ccccc3Cl)ccnc2c1)C(=O)N(C)C [Compound 88, (2R)-2-[[4-(2-chlorophenyl)-7-quinolyl]oxy]-N,N-dimethyl-propanamide]	5.00 to 6.00	6.30 to 7.30
C[C@@H](Oc1ccc2c(-c3ccc(F)cc3Cl)ccnc2c1)C(=O)Nc1ccncc1 [Compound 95, (2R)-2-[[4-(2-chloro-4-fluoro-phenyl)-7-quinolyl]oxy]-N-(4-pyridyl)propanamide]	6.00 to 7.00	6.30 to 7.30
C[C@@H](Oc1ccc2c(-c3ccccc3Cl)cc(Cl)nc2c1)C(=O)N1CCCCC1 [Compound 99, (2R)-2-[[2-chloro-4-(2-chlorophenyl)-7-quinolyl]oxy]-1-(1-piperidyl)propan-1-one]	5.00 to 6.00	5.30 to 6.30
Cc1cc(-c2ccc(F)cc2Cl)c2ccc(O[C@H](C)C(=O)N3CCC[C@H](CC(=O)O)C3)cc2n1 [Compound 101, 2-[(3R)-1-[(2R)-2-[[4-(2-chloro-4-fluoro-phenyl)-2-methyl-7-quinolyl]oxy]propanoyl]-3-piperidyl]acetic acid]	5.00 to 6.00	5.30 to 6.30
C[C@@H](Oc1ccc2c(-c3ccccc3Cl)cc(Cl)nc2c1)C(=O)N1CCNCC1 [Compound 104, (2R)-2-[[2-chloro-4-(2-chlorophenyl)-7-quinolyl]oxy]-1-piperazin-1-yl-propan-1-one]	5.00 to 6.00	6.30 to 7.30
Cc1cc(-c2c(C)cccc2C)c2ccc(O[C@H](C)C(=O)N3CCC[C@H](S(N)(=O)=O)C3)cc2n1 [Compound 113, (3S)-1-[(2R)-2-[[4-(2,6-dimethylphenyl)-2-methyl-7-quinolyl]oxy]propanoyl]piperidine-3-sulfonamide]	6.00 to 7.00	6.30 to 7.30

Continued, values first:

pIC50 [1]	pIC50 [2]	SMILES
6.00 to 7.00	7.30 to 8.00	CCOC(=O)C[C@H]1CCCN(C(=O)[C@@H](C)Oc2ccc3c(-c4ccccc4C)cc(C)nc3c2)C1 [Compound 49, ethyl 2-[(3R)-1-[(2R)-2-[[2-methyl-4-(o-tolyl)-7-quinolyl]oxy]propanoyl]-3-piperidyl]acetate]
6.00 to 7.00	7.30 to 8.00	CCOC(=O)[C@@H](C)Oc1ccc2c(-c3ccccc3Cl)ccnc2c1 [Compound 50, ethyl (2R)-2-[[4-(2-chlorophenyl)-7-quinolyl]oxy]propanoate]
6.00 to 7.00	7.30 to 8.00	Cc1ccccc1-c1cc(Cl)nc2cc(O[C@H](C)C(=O)N3CCC[C@H](C(N)=O)C3)ccc12 [Compound 52, (3S)-1-[(2R)-2-[[2-chloro-4-(o-tolyl)-7-quinolyl]oxy]propanoyl]piperidine-3-carboxamide]
6.00 to 7.00	7.30 to 8.00	C[C@@H](Oc1ccc2c(-c3ccccc3Cl)ccnc2c1)C(=O)N1CCCCC1 [Compound 53, (2R)-2-[[4-(2-chlorophenyl)-7-quinolyl]oxy]-1-(1-piperidyl)propan-1-one]
6.00 to 7.00	6.30 to 7.30	C[C@@H](Oc1ccc2c(-c3ccc(F)cc3Cl)ccnc2c1)C(=O)N1CCNCC1 [Compound 55, (R)-2-((4-(2-chloro-4-fluorophenyl)quinolin-7 yl)oxy)-1-(piperazin-1 yl)propan-1-one 2×TFA salt]
6.00 to 7.00	6.30 to 7.30	C[C@@H](Oc1ccc2c(-c3ccc(F)cc3Cl)cc(Cl)nc2c1)C(=O)N1CCC[C@H](CC(=O)O)C1 [Compound 56, 2-[(3R)-1-[(2R)-2-[[2-chloro-4-(2-chloro-4-fluoro-phenyl)-7-quinolyl]oxy]propanoyl]-3-piperidyl]acetic acid]
6.00 to 7.00	6.30 to 7.30	Cc1cc(F)ccc1-c1cc(Cl)nc2cc(O[C@H](C)C(=O)N3CCC[C@H](CC(=O)O)C3)ccc12 [Compound 57, 2-[(3R)-1-[(2R)-2-[[2-chloro-4-(4-fluoro-2-methyl-phenyl)-7-quinolyl]oxy]propanoyl]-3-piperidyl]acetic acid]
6.00 to 7.00	7.30 to 8.00	Cc1cc(-c2ccc(F)cc2Cl)c2ccc(O[C@H](C)C(=O)N3CCC[C@H](C(=O)O)C3)cc2n1 [Compound 59, (3S)-1-[(2R)-2-[[4-(2-chloro-4-fluoro-phenyl)-2-methyl-7-quinolyl]oxy]propanoyl]piperidine-3-carboxylic acid]
6.00 to 7.00	6.30 to 7.30	C[C@@H](Oc1ccc2c(-c3ccc(F)cc3Cl)ccnc2c1)C(=O)Nc1ccc(C(=O)O)cc1 [Compound 60, 4-[[(2R)-2-[[4-(2-chloro-4-fluoro-phenyl)-7-quinolyl]oxy]propanoyl]amino]benzoic acid]
6.00 to 7.00	6.30 to 7.30	CC(C)NC(=O)[C@@H](C)Oc1ccc2c(-c3ccc(F)cc3Cl)ccnc2c1 [Compound 61, (2R)-2-[[4-(2-chloro-4-fluoro-phenyl)-7-quinolyl]oxy]-N-isopropyl-propanamide]
6.00 to 7.00	6.30 to 7.30	C[C@@H](Oc1ccc2c(-c3ccc(F)cc3Cl)ccnc2c1)C(=O)N1CCNC(=O)C1 [Compound 63, (R)-4-(2-((4-(2-chloro-4-fluorophenyl)quinolin-7-yl)oxy)propanoyl)piperazin-2-one]
6.00 to 7.00	6.30 to 7.30	C[C@@H](Oc1ccc2c(-c3ccc(F)cc3Cl)cc(Cl)nc2c1)C(=O)N1CCC[C@H](C(=O)O)C1 [Compound 64, (3S)-1-[(2R)-2-[[2-chloro-4-(2-chloro-4-fluoro-phenyl)-7-quinolyl]oxy]propanoyl]piperidine-3-carboxylic acid]
6.00 to 7.00	7.30 to 8.00	C[C@@H](Oc1ccc2c(-c3ccccc3)ccnc2c1)C(=O)N1CCC[C@H](C(=O)O)C1 [Compound 66, (3S)-1-[(2R)-2-[(4-phenyl-7-quinolyl)oxy]propanoyl]piperidine-3-carboxylic acid]
6.00 to 7.00	6.30 to 7.30	CNC(=O)C[C@H]1CCCN(C(=O)[C@@H](C)Oc2ccc3c(-c4ccccc4Cl)cc(Cl)nc3c2)C1 [Compound 68, 2-[(3R)-1-[(2R)-2-[[2-chloro-4-(2-chlorophenyl)-7-quinolyl]oxy]propanoyl]-3-piperidyl]-N-methyl-acetamide]
6.00 to 7.00	7.30 to 8.00	Cc1cc(-c2ccccc2C)c2ccc(O[C@H](C)C(=O)N3CCC[C@H](CC(=O)O)C3)cc2n1 [Compound 69, 2-[(3R)-1-[(2R)-2-[[2-methyl-4-(o-tolyl)-7-quinolyl]oxy]propanoyl]-3-piperidyl]acetic acid]
6.00 to 7.00	5.30 to 6.30	C[C@@H](Oc1ccc2c(-c3ccccc3Cl)cc(Cl)nc2c1)C(=O)N1CCN(C(=O)C2CC2)CC1 [Compound 70, (2R)-2-[[2-chloro-4-(2-chlorophenyl)-7-quinolyl]oxy]-1-[4-(cyclopropanecarbonyl)piperazin-1-yl]propan-1-one]
6.00 to 7.00	6.30 to 7.30	Cc1ccccc1-c1cc(Cl)nc2cc(O[C@H](C)C(=O)OC(C)(C)C)ccc12 [Compound 73, tert-butyl (2R)-2-[[2-chloro-4-(o-tolyl)-7-quinolyl]oxy]propanoate]
7.00 to 7.70	7.30 to 8.00	C[C@@H](Oc1ccc2c(-c3ccccc3Cl)ccnc2c1)C(=O)N1CCC(CC(=O)O)CC1 [Compound 112, 2-[1-[(2R)-2-[[4-(2-chlorophenyl)-7-quinolyl]oxy]propanoyl]-4-piperidyl]acetic acid]
